PubChem BioAssay (NCI)
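Briefly, cells in 96-well plates were exposed to five compound concentrations for 48 h, and endpoints were estimated by linear interpolation. Definition used: TGI = concentration required for complete inhibition of growth.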

Legend:
Assay in all cases: NCI-60 cell line screen, 48 h
ACHN renal = test system: ACHN renal
OVCAR-3 ovarian = test system: OVCAR-3 ovarian
OVCAR-4 ovarian = test system: OVCAR-4 ovarian
M19-MEL melanoma = test system: M19-MEL melanoma
A498 renal = test system: A498 renal
EKVX NSCLC = test system: EKVX NSCLC
HCT-15 colon = test system: HCT-15 colon
SNB-78 CNS = test system: SNB-78 CNS
786-0 renal = test system: 786-0 renal
UO-31 renal = test system: UO-31 renal
SK-MEL-5 melanoma = test system: SK-MEL-5 melanoma
HOP-62 NSCLC = test system: HOP-62 NSCLC
OVCAR-5 ovarian = test system: OVCAR-5 ovarian
SR leukemia = test system: SR leukemia
M14 melanoma = test system: M14 melanoma
KM20L2 colon = test system: KM20L2 colon
SF-268 CNS = test system: SF-268 CNS
K-562 leukemia = test system: K-562 leukemia
UACC-257 melanoma = test system: UACC-257 melanoma
HCT-116 colon = test system: HCT-116 colon
SNB-75 CNS = test system: SNB-75 CNS
SK-OV-3 ovarian = test system: SK-OV-3 ovarian
DMS 114 small cell lung = test system: DMS 114 small cell lung
SW-620 colon = test system: SW-620 colon
SN12C renal = test system: SN12C renal
SK-MEL-28 melanoma = test system: SK-MEL-28 melanoma
LOX IMVI melanoma = test system: LOX IMVI melanoma
A549 NSCLC = test system: A549 NSCLC
DLD-1 colon = test system: DLD-1 colon
HOP-92 NSCLC = test system: HOP-92 NSCLC
UACC-62 melanoma = test system: UACC-62 melanoma
NCI-H23 lung = test system: NCI-H23 lung
MALME-3M melanoma = test system: MALME-3M melanoma
HOP-18 NSCLC = test system: HOP-18 NSCLC
SNB-19 CNS = test system: SNB-19 CNS
NCI-H460 lung = test system: NCI-H460 lung
TK-10 renal = test system: TK-10 renal
COLO 205 colon = test system: COLO 205 colon
SK-MEL-2 melanoma = test system: SK-MEL-2 melanoma
SF-539 CNS = test system: SF-539 CNS
NCI-H522 lung = test system: NCI-H522 lung
HT29 colon = test system: HT29 colon
HCC-2998 colon = test system: HCC-2998 colon
HL-60(TB) leukemia = test system: HL-60(TB) leukemia
RXF 393 renal = test system: RXF 393 renal
U251 CNS = test system: U251 CNS
RXF-631 renal = test system: RXF-631 renal
OVCAR-8 ovarian = test system: OVCAR-8 ovarian
RPMI-8226 leukemia = test system: RPMI-8226 leukemia
LXFL 529 NSCLC = test system: LXFL 529 NSCLC
IGROV1 ovarian = test system: IGROV1 ovarian
KM12 colon = test system: KM12 colon
DMS 273 small cell lung = test system: DMS 273 small cell lung
SF-295 CNS = test system: SF-295 CNS
NCI-H226 lung = test system: NCI-H226 lung
MOLT-4 leukemia = test system: MOLT-4 leukemia
CCRF-CEM leukemia = test system: CCRF-CEM leukemia
CAKI-1 renal = test system: CAKI-1 renal

Measured: TGI

CSc1nc(NC2OC(COC(C)=O)C(OC(C)=O)C(OC(C)=O)C2OC(C)=O)c(N=CC=Nc2c(NC3OC(COC(C)=O)C(OC(C)=O)C(OC(C)=O)C3OC(C)=O)nc(SC)[nH]c2=O)c(=O)[nH]1 (centres undefined)
> 100 µM: ACHN renal | OVCAR-3 ovarian | OVCAR-4 ovarian | M19-MEL melanoma | A498 renal | EKVX NSCLC | HCT-15 colon | SNB-78 CNS | 786-0 renal | UO-31 renal | SK-MEL-5 melanoma | HOP-62 NSCLC | OVCAR-5 ovarian | SR leukemia | M14 melanoma | KM20L2 colon | SF-268 CNS | K-562 leukemia | UACC-257 melanoma | HCT-116 colon | SNB-75 CNS | SK-OV-3 ovarian | DMS 114 small cell lung | SW-620 colon | SN12C renal | SK-MEL-28 melanoma | LOX IMVI melanoma | A549 NSCLC | DLD-1 colon | HOP-92 NSCLC | UACC-62 melanoma | NCI-H23 lung | MALME-3M melanoma | HOP-18 NSCLC | SNB-19 CNS | NCI-H460 lung | TK-10 renal | COLO 205 colon | SK-MEL-2 melanoma | SF-539 CNS | NCI-H522 lung | HT29 colon | HCC-2998 colon | HL-60(TB) leukemia | RXF 393 renal | U251 CNS | RXF-631 renal | OVCAR-8 ovarian | RPMI-8226 leukemia | LXFL 529 NSCLC | IGROV1 ovarian | KM12 colon | DMS 273 small cell lung | SF-295 CNS

CCOc1ccc(NC(=O)/C(=C\c2ccc(C)cc2)C(C)=O)cc1
> 100 µM: ACHN renal | OVCAR-3 ovarian | OVCAR-4 ovarian | M19-MEL melanoma | A498 renal | EKVX NSCLC | HCT-15 colon | SNB-78 CNS | 786-0 renal | UO-31 renal | SK-MEL-5 melanoma | HOP-62 NSCLC | NCI-H226 lung | OVCAR-5 ovarian | SR leukemia | M14 melanoma | KM20L2 colon | SF-268 CNS | K-562 leukemia | UACC-257 melanoma | HCT-116 colon | SNB-75 CNS | SK-OV-3 ovarian | DMS 114 small cell lung | MOLT-4 leukemia | SW-620 colon | SN12C renal | SK-MEL-28 melanoma | LOX IMVI melanoma | A549 NSCLC | DLD-1 colon | HOP-92 NSCLC | UACC-62 melanoma | CCRF-CEM leukemia | NCI-H23 lung | MALME-3M melanoma | HOP-18 NSCLC | SNB-19 CNS | TK-10 renal | COLO 205 colon | SK-MEL-2 melanoma | SF-539 CNS | NCI-H522 lung | HT29 colon | HCC-2998 colon | HL-60(TB) leukemia | U251 CNS | RXF-631 renal | OVCAR-8 ovarian | RPMI-8226 leukemia | LXFL 529 NSCLC | IGROV1 ovarian | DMS 273 small cell lung | CAKI-1 renal | SF-295 CNS
